# Measurements published in patent US7750013B2, “N-oxides as prodrugs of piperazine and piperidine derivatives” (Solvay Pharmaceuticals, B.V., priority 2005, dated 2010).
# Assays:
# 5-HT1B = 5-HT1B (Rattus norvegicus, UniProt P28564); experiment: In vitro receptor affinity, 5-HT1B; type: binding
# Method: (§1) The binding data collected in the table below (Example 5: pharmacological test results) were either obtained by CEREP (128, rue Danton, 92500 Rueil-Malmaison, France) or at Solvay Pharmaceuticals B.V. (C. J. van Houtenlaan 36, 1381 CP Weesp, The Netherlands), using well documented standard procedures. The affinities for dopamine-D2 and 5-HT1A receptors for instance, was measured as described by Creese I, Schneider R and Snyder S H, [^3H]-Spiroperidol labels dopamine receptors in rat pituitary and brain, Eur J Pharmacol […], 46: 377-381 and Gozlan H, El Mestikawy S, Pichat L, Glowinsky J and Hamon M, 1983, Identification of presynaptic serotonin autoreceptors using a new ligand ^3H-PAT, Nature 1983, 305: 140-142.
# Dopamine-D2 = Dopamine-D2 (Homo sapiens, UniProt P14416); experiment: In vitro receptor affinity, Dopamine-D2; type: binding
# Method: as §1
# [1] = Plasma levels of SLV308 and its N-oxide after oral dosing; type: in vivo; conditions: after oral administration; rats
# Description: These findings were corroborated by measurements of plasma levels of SLV308 and its N-oxide after oral dosing with SLV308 and the N-oxide.
# Dopamine-D2 receptor = experiment: Apomorphine-induced climbing behaviour in mice; type: in vivo
# Method: In Vivo Animal Model for Dopamine-D2 Receptor (Ant)Agonistic Activity
# Apomorphine-induced climbing behaviour in mice (Costall B, Naylor R J and Nohria V, Differential actions of typical and atypical agents on two behavioural effects of apomorphine in the mouse, Brit J Pharmacol 1978, 63: 381-382).
# For oral (p.o.) administration: to the desired quantity (0.5-5 mg) of the solid test compound in a glass tube, some glass beads were added and the solid was milled by vortexing for 2 minutes. After addition of 1 ml of a solution of 1% methylcellulose in water and 2% (v/v) of Poloxamer 188 (Lutrol F68), the compound was suspended by vortexing for 10 minutes. The pH was adjusted to 7. Remaining particles in the suspension were further suspended by using an ultrasonic bath.
# For intravenous (i.v.) administration: compounds were dissolved in physiological saline (0.9% NaCl) and the pH was adjusted to 7.
# α1-adrenergic = experiment: In vitro receptor affinity, α1-adrenergic; type: binding; conditions: rat; radioligand [3H]-prazosin
# Method: as §1
# 5-HT3 = 5-HT3 (Rattus norvegicus, UniProt P35563); experiment: In vitro receptor affinity, 5-HT3; type: binding
# Method: as §1
# [2] = biological target: T1, Human dopamine-D3 receptor (Homo sapiens, UniProt P35462); experiment: In vitro functional receptor activity; type: cell-based
# T1 construct: expressed in transfected cells
# Dopamine-D1 = Dopamine-D1 (Homo sapiens, UniProt P21728); experiment: In vitro receptor affinity, Dopamine-D1; type: binding
# Method: as §1
# 5-HT2C = 5-HT2C (Homo sapiens, UniProt P28335); experiment: In vitro receptor affinity, 5-HT2C; type: binding
# Method: as §1
# 5-HT7 = 5-HT7 (Homo sapiens, UniProt P34969); experiment: In vitro receptor affinity, 5-HT7; type: binding
# Method: as §1
# μ-opiate = μ-opiate (Rattus norvegicus, UniProt P33535); experiment: In vitro receptor affinity, μ-opiate; type: binding
# Method: as §1
# κ-opiate = κ-opiate (Rattus norvegicus, UniProt P34975); experiment: In vitro receptor affinity, κ-opiate; type: binding
# Method: as §1
# 5-HT1D = experiment: In vitro receptor affinity, 5-HT1D; type: binding; conditions: bovine; radioligand [3H]-serotonin
# Method: as §1
# Dopamine-D2S = Dopamine-D2S (Homo sapiens, UniProt P14416); experiment: In vitro receptor affinity, Dopamine-D2S; type: binding
# Method: as §1
# β2-adrenergic = β2-adrenergic (Homo sapiens, UniProt P07550); experiment: In vitro receptor affinity, β2-adrenergic; type: binding
# Method: as §1
# α2C-adrenergic = α2C-adrenergic (Homo sapiens, UniProt P18825); experiment: In vitro receptor affinity, α2C-adrenergic; type: binding
# Method: as §1
# [3] = tested on: receptors for which the parent compound showed a high affinity; experiment: In vitro screening of the N-oxide metabolite (receptor affinity overall); type: binding; conditions: affinity very low or below the detection limit
# Description: In drug development, metabolites are routinely investigated for activity, toxicity, etc. […] These findings confirmed that in this case one of the most common situations with an N-oxide had occurred: metabolic deactivation.
# as §1
# Dopamine-D4 = Dopamine-D4 (Homo sapiens, UniProt P21917); experiment: In vitro receptor affinity, Dopamine-D4; type: binding
# Method: as §1
# α1B-adrenergic = α1B-adrenergic (Rattus norvegicus, UniProt P15823); experiment: In vitro receptor affinity, α1B-adrenergic; type: binding
# Method: as §1
# T1 sequence (P35462 whole entry): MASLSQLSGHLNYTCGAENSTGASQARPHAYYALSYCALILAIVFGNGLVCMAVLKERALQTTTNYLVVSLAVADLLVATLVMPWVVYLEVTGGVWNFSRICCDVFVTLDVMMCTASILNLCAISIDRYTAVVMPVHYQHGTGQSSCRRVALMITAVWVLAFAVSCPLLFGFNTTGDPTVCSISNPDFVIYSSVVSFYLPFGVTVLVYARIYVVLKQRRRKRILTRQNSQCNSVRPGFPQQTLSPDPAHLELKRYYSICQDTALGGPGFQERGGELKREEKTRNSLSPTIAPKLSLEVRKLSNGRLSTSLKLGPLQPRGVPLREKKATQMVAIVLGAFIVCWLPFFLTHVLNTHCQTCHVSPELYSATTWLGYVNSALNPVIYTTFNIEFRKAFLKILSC
# Dopamine-D2, sequence (P14416 whole entry): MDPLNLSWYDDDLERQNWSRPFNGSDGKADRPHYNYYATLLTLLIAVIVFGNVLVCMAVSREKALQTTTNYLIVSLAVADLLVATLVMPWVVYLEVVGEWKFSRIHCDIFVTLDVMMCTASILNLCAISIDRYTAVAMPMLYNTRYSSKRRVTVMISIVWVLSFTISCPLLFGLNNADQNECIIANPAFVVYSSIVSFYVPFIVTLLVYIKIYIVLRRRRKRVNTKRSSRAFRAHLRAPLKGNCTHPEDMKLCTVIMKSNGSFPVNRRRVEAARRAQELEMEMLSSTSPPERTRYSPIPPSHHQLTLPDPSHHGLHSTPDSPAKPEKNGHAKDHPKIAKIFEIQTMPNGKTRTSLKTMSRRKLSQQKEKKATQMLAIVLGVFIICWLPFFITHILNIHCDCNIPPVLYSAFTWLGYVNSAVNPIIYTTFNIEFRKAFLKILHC
# Dopamine-D4, sequence (P21917 whole entry): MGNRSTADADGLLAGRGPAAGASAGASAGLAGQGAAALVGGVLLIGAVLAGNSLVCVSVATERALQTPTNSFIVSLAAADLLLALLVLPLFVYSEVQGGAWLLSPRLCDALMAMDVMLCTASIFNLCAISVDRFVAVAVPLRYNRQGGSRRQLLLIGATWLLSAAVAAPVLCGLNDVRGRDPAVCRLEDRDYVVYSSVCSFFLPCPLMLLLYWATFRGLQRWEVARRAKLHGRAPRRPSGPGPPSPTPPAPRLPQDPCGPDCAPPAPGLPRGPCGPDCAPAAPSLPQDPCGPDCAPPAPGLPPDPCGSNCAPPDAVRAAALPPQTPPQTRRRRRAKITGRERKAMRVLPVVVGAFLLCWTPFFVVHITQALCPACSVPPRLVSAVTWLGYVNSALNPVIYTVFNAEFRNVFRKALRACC
# 5-HT7, sequence (P34969 whole entry): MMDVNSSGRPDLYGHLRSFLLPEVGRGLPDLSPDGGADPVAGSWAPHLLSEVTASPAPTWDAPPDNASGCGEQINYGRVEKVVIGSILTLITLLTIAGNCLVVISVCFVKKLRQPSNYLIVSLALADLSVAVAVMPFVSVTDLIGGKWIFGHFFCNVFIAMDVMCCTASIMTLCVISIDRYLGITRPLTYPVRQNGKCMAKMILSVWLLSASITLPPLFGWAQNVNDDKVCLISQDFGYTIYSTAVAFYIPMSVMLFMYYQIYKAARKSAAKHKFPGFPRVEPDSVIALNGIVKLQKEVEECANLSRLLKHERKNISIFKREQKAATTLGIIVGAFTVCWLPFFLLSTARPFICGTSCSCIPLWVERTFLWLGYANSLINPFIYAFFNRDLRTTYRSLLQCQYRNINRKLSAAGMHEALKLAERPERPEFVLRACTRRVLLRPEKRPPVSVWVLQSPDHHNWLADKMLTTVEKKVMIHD
# α2C-adrenergic, sequence (P18825 whole entry): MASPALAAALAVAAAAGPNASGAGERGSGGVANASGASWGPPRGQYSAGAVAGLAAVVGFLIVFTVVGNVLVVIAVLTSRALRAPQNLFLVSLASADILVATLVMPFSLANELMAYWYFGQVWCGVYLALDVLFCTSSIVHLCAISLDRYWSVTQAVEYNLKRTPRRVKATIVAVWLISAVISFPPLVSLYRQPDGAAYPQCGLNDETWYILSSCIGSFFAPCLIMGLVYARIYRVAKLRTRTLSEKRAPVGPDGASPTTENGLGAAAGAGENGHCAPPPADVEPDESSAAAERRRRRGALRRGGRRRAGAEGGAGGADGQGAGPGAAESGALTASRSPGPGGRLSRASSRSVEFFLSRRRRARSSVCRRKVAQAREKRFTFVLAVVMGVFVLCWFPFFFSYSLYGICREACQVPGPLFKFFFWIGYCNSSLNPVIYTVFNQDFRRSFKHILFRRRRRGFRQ
# 5-HT1B, sequence (P28564 whole entry): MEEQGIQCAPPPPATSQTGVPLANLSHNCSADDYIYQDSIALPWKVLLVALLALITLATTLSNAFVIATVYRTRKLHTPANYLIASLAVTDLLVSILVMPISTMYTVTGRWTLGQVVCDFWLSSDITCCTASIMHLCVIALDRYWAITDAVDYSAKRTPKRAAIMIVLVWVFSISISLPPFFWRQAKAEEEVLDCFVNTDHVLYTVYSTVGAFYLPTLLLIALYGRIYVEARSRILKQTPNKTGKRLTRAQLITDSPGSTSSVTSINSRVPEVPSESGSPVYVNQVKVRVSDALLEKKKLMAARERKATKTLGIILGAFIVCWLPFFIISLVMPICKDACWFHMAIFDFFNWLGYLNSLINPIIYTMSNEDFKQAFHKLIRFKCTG
# Dopamine-D1, sequence (P21728 whole entry): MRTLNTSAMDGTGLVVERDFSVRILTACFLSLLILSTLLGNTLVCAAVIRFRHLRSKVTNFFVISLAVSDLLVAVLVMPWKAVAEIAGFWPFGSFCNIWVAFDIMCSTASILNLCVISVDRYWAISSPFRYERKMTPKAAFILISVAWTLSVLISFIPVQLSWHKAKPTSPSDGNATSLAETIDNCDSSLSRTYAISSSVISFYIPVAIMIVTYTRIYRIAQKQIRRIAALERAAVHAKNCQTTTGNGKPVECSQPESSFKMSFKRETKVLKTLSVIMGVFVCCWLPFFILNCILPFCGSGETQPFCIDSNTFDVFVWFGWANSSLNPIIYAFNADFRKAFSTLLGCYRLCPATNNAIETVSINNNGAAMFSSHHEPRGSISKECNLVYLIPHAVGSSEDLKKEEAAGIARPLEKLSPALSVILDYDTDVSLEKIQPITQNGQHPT
# κ-opiate, sequence (P34975 whole entry): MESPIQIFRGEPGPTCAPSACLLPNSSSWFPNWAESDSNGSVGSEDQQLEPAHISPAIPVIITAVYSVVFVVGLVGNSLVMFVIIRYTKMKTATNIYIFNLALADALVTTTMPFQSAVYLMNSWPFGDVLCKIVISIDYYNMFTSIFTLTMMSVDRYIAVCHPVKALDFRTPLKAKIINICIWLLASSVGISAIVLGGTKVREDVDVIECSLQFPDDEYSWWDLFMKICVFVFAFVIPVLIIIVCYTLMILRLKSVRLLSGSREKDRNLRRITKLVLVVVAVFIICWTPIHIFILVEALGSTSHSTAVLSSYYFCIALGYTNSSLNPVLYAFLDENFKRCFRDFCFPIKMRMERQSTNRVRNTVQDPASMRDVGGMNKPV
# 5-HT3, sequence (P35563 24-483): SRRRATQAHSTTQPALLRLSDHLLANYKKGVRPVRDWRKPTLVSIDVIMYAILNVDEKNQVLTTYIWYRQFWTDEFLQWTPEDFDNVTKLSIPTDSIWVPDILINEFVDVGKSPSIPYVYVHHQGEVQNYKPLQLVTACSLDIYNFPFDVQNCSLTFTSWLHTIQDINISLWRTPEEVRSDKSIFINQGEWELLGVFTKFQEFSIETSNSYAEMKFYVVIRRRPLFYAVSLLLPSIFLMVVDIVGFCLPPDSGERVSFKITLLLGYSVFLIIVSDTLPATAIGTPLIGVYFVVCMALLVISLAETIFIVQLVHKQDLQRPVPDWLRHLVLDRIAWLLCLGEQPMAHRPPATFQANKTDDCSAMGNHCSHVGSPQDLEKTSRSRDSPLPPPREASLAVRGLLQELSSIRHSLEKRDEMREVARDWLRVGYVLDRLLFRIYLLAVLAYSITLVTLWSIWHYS
# 5-HT2C, sequence (P28335 33-458): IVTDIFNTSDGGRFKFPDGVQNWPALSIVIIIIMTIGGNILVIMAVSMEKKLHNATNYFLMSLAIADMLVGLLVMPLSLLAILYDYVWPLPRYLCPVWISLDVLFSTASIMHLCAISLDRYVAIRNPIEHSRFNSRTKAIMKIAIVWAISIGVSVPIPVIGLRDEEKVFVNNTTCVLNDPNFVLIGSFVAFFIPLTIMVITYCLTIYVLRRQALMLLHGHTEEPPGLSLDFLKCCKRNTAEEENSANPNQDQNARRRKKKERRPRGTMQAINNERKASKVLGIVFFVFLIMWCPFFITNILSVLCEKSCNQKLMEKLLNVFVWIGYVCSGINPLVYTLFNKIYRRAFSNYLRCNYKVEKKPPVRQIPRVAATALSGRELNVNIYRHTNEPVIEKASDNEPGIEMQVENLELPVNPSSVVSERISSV
# Dopamine-D2S, sequence (P14416 1-414 isoform P14416-2): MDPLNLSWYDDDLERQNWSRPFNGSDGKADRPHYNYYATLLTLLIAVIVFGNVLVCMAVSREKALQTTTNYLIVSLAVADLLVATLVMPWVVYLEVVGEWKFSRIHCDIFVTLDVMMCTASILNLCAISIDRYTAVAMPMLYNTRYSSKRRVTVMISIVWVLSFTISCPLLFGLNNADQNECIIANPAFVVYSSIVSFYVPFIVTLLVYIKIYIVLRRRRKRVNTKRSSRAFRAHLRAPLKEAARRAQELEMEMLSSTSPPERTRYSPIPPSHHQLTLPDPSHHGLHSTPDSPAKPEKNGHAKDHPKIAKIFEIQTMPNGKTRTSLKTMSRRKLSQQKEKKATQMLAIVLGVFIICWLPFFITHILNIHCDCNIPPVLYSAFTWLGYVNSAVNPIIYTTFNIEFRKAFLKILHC
smiles,measurement,setting,value
"C[N+]1([O-])CCN(c2cccc3[nH]c(=O)oc23)CC1 [N-oxide of SLV308, N-Oxide of SLV308]",Ki,5-HT1B,> 1000 nM
same,Ki,Dopamine-D2,> 1000 nM
same,Factor by which dopamine-D2 receptor affinities differ (N-oxide vs SLV308),Dopamine-D2; potency ratio,≥ 100
same,Plasma levels of the N-oxide relative to SLV308 (in words),[1],approximately equal
same,In vivo activity compared with the parent compound (in words),Dopamine-D2 receptor; administered intravenously,approximately one tenth of the activity of the parent compound
same,Antagonism of apomorphine induced climbing behavior after intravenous dosing: ED50,"Dopamine-D2 receptor; mice, i.v.",0.90 mg/kg
same,Antagonism of apomorphine induced climbing behavior after oral dosing: ED50,"Dopamine-D2 receptor; mice, oral",0.79 mg/kg
same,In vivo activity compared with the parent compound (in words),Dopamine-D2 receptor; oral administration,equipotent with SLV308
same,Ki,α1-adrenergic,> 1000 nM
same,Ki,5-HT3,> 1000 nM
same,EC50,[2],50.1 nM
same,Human dopamine-D3 receptor intrinsic activity (α),[2],0.60
same,Kb,[2],> 10000 nM
same,Ki,Dopamine-D1,> 1000 nM
same,Ki,5-HT2C,> 1000 nM
same,Ki,5-HT7,> 1000 nM
same,Ki,μ-opiate,> 1000 nM
same,Ki,κ-opiate,> 1000 nM
same,Ki,5-HT1D,> 1000 nM
same,melting point,,242 to 243 °C
same,Ki,Dopamine-D2S,> 1000 nM
same,Ki,β2-adrenergic,> 1000 nM
same,Ki,α2C-adrenergic,400 nM
same,In vitro activity (in words),[3],virtually inactive
same,Ki,Dopamine-D4,130 nM
same,Factor by which affinities for dopamine-D4 receptors differ (N-oxide vs SLV308),Dopamine-D4; potency ratio,10
same,Ki,α1B-adrenergic,400 nM
